Data as given in US20020048572A1, “Treatment of hypertriglyceridemia and other conditions using LXR modulators” (priority 2000, published 2002).
“Also recorded” adds a separate entry of the source.

What was measured:
[1] = tested on: HepG2 cells; test: Northern blot analysis of T0314407-dosed HepG2 cells with and without cycloheximide; assay type: cell-based; settings: HepG2, with 50 μg/mL cycloheximide, 18 h
Procedure: FIG. 9. Northern blot analysis. Total RNA was isolated from the tissues indicated from mice (A,B,C) and hamsters (D). The numerical data shown with each figure represents the fold increase (+) or decrease (−) of expression relative to corresponding vehicle-treated controls. (E) HepG2 cells were incubated in culture media with or without cycloheximide (cyclohex). For the Northern blot analysis from cycloheximide-treated HepG2 cells, tissue cultures were incubated in cell culture media with 10% lipid-deficient serum with or without 50 μg/mL cycloheximide. T0314407 was added after 30 min of cycloheximide treatment, cells were harvested 18 h later, and total RNA was extracted as described.

[2] = tested on: HepG2 cells; test: Northern blot analysis of HepG2 cells treated with LXRα ligand, with or without cyclohexamide; assay type: cell-based
Procedure: HepG2 cells were treated with 24,25-epoxycholesterol in the presence or absence of 50 μg/ml cyclohexamide in DMEM F12 media supplemented with 10% lipid-free serum for 18 hours.
Total RNA was then prepared using the TRIzol® method (Chomczynski and Saachi (1987) Anal. Biochem. 162:156). Electrophoresis and Northern blot analysis were performed using the NorthernMax™ system (Ambion). Ribonucleotide probes were used to identify the RNA transcripts.

[3] = target: T1, LXRα (Homo sapiens, UniProt Q13133); settings: SPA
T1 sequence (Q13133 1-447): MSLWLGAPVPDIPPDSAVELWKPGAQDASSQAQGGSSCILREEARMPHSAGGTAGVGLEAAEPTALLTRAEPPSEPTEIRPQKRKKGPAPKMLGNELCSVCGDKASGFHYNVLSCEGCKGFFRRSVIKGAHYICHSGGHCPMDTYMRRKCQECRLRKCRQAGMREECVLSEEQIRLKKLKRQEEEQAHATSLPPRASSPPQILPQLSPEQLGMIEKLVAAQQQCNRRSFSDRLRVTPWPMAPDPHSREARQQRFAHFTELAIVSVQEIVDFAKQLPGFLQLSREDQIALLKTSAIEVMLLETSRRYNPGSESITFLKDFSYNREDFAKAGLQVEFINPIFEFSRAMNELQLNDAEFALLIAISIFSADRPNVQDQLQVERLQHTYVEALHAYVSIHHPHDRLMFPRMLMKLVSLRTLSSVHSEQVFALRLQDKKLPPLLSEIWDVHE

[4] = target: T2, LXRα ligand-binding domain (Homo sapiens, UniProt Q13133); test: biochemical
T2 sequence (Q13133 209-447 limits assumed): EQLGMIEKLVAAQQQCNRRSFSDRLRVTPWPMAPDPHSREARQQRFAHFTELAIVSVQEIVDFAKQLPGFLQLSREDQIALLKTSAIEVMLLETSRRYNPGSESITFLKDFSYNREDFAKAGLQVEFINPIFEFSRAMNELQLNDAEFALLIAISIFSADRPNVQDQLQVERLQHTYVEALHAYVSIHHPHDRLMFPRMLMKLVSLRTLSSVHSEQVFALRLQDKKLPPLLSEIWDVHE

[5] = tested on: HepG2, 293, and CaCO2 cells; test: Northern blot analysis of three cell lines treated with oxysterols in presence of cyclohexamide; assay type: cell-based; settings: 30 μM, 50 μg/ml cyclohexamide, 18 hours
Procedure: To ascertain whether or not the 24,25-epoxycholesterol-mediated activation of SREBP-1 expression is cell-specific, three cell lines were tested. HepG2, 293, and CaCO2 cells were treated with either DMSO, 30 μM of 24,25-epoxycholesterol, 30 μM of 22(R)-hydroxycholesterol, or 30 μM 22(S)-hydroxycholesterol in the presence of 50 μg/ml cyclohexamide in DMEM F12 media supplemented with 10% lipid-free serum for 18 hours.
Total RNA was then prepared using the Trizol method. Electrophoresis and Northern blot analysis were performed using the NorthernMax™ system (Ambion). Ribonucleotide probes were used to identify RNA transcripts.

[6] = HepG2, presence and absence of 50 μg/ml cyclohexamide, 18 hours

Structure (SMILES)	agonist-mediated increase in levels of FAS mRNA [1]	induction of SREBP-1 gene expression [1]	expression of SREBP-2 ([2]; HepG2, 18 hours)	expression of negative control GAPDH ([2]; HepG2, 18 hours)	expression of SREBP-1 mRNA [2, 6]	expression of fatty acid synthase [2, 6]	competition with binding of radiolabeled T0314407 to LXRα [3]	EC50 [4] [nM]	expression of GAPDH [5]	expression of SREBP-2 [5]	SREBP-1 expression ([5]; all three cell lines)
CN(c1ccc(C(O)(C(F)(F)F)C(F)(F)F)cc1)S(=O)(=O)c1ccccc1 [T0314407, N-methyl-N-[4-(2,2,2-trifluoro-1-hydroxy-1-trifluoromethyl-ethyl)-phenyl]-benzenesulfonamide]	arrested	persisted									
C[C@H](CC[C@@H]1OC1(C)C)[C@H]1CC[C@H]2[C@@H]3CC=C4C[C@@H](O)CC[C@]4(C)[C@H]3CC[C@]12C [24,25-epoxycholesterol, 24(S),25-epoxycholesterol]			not affected	not affected	stimulated; also recorded: activates	stimulated	competed	300	not significantly enhanced	not significantly enhanced	activates
